Source: US7226923B2, “Phthalazinone derivatives” (Hoffman-La Roche Inc., priority 2004, dated 2007)

These compounds were tested against T1, Aurora A (Homo sapiens, UniProt O14965) (assay: IC50 determination for inhibitors of Aurora A (96 MTP-ELISA)). Settings: His4-tagged full-length Aurora A 250 ng/ml, PKB-GSK2 200 nM, ATP 4 μM, 90 min at room temperature, read-out: IC50 Aurora A kinase inhibition.
T1 construct: C-terminally Histidine4 (His4)-tagged Aurora A full-length protein
T1 sequence (O14965 1-403): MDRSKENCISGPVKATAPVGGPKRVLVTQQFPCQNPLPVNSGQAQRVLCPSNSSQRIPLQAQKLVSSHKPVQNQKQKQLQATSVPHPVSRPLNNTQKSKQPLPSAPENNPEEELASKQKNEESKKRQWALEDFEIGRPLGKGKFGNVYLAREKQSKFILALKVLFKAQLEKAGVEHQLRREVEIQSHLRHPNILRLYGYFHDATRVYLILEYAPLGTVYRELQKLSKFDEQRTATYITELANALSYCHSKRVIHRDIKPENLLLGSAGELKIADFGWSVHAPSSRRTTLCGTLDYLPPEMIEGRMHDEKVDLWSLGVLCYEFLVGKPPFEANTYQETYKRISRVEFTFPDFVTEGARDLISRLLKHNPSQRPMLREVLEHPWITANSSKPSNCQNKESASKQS
Format: biochemical
Method: IC50 Determination for Inhibitors of Aurora A
• Aurora A is a serine threonine kinase involved in spindle assembly and chromosome segregation.
The assay is a typically ELISA-type assay where biotinylated substrate (PKB-GSK2) is phosphorylated. Phosphorylation is detected by peroxidase (POD) labelled polyclonal antibody (PAK<M-Ig>S-IgG-POD) and phosphopeptide monoclonal antibody (Mab) (MAK<P-GSK>M-27E5-IgG). The assay is validated for IC50-determination.
Method • This assay is performed in 96-well format for IC50 determination with 5 samples (each with 8 concentrations by twofold testing), 100 μl incubation volume and the following plate layout: […]

SMILES	IC50 [nM]
CC(=O)Nc1ccc(-n2nc(Nc3cc(C)[nH]n3)c3ccccc3c2=O)cc1 [Example T-1, N-{4-[4-(5-Methyl-1H-pyrazol-3-ylamino)-1-oxo-1H-phthalazin-2-yl]-phenyl}-acetamide]	100 to 1000
Cc1ccc(-n2nc(Nc3cc[nH]n3)c3ccccc3c2=O)cc1 [Example A-10, 4-(1H-Pyrazol-3-ylamino)-2-p-tolyl-2H-phthalazin-1-one]	100 to 1000
COCC(C)n1nc(Nc2cc(C)n[nH]2)c2ccccc2c1=O (centres unmarked) [Example O-2, 2-(2-Methoxy-1-methyl-ethyl)-4-(5-methyl-2H-pyrazol-3-ylamino)-2H-phthalazin-1-one]	100 to 1000
CONC(=O)c1ccc2c(Nc3cc(C)[nH]n3)nn(C(C)C)c(=O)c2c1 [Example M-4, 3-Isopropyl-1-(5-methyl-1H-pyrazol-3-ylamino)-4-oxo-3,4-dihydro-phthalazine-6-carboxylic acid methoxy-amide]	1 to 100
Cc1cc(Nc2nn(-c3ccc4ccccc4c3)c(=O)c3ccccc23)n[nH]1 [Example R-3, 4-(5-Methyl-1H-pyrazol-3-ylamino)-2-naphthalen-2-yl-2H-phthalazin-1-one]	1 to 100
Cc1cc(Nc2nn(C(C)C)c(=O)c3cc(N(C)C)ccc23)n[nH]1 [Example F-6, 2-Isopropyl-4-(5-methyl-1H-pyrazol-3-ylamino)-7-dimethylamino-2H-phthalazin-1-one]	1 to 100
Cc1cc(Nc2nn(Cc3ccc(S(C)(=O)=O)cc3)c(=O)c3ccccc23)[nH]n1 [Example A-14, 2-(4-Methanesulfonyl-benzyl)-4-(5-methyl-2H-pyrazol-3-ylamino)-2H-phthalazin-1-one]	1 to 100
CCOC(=O)Nc1ccc(-n2nc(Nc3cc(C)[nH]n3)c3ccccc3c2=O)cc1 [Example Y-2, {4-[4-(5-Methyl-1H-pyrazol-3-ylamino)-1-oxo-1H-phthalazin-2-yl]-phenyl}-carbamic acid ethyl ester]	1 to 100
Cc1cc(Nc2nn(Cc3cccnc3)c(=O)c3ccccc23)[nH]n1 [Example A-18, 4-(5-Methyl-2H-pyrazol-3-ylamino)-2-pyridin-3-ylmethyl-2H-phthalazin-1-one]	1 to 100
Cc1cc(Nc2nn(-c3ccc(F)cc3)c(=O)c3ccccc23)n[nH]1 [Example A-7, 2-(4-Fluoro-phenyl)-4-(5-methyl-1H-pyrazol-3-ylamino)-2H-phthalazin-1-one]	1 to 100
Cc1cc(Nc2nn(-c3ccc(C(F)(F)F)cc3Cl)c(=O)c3ccccc23)n[nH]1 [Example W-1, 2-(2-Chloro-4-trifluoromethyl-phenyl)-4-(5-methyl-1H-pyrazol-3-ylamino)-2H-phthalazin-1-one]	100 to 1000
COc1ccc2c(Nc3cc(C)[nH]n3)nn(Cc3ccccc3)c(=O)c2c1 [Example G-8, 2-Benzyl-7-methoxy-4-(5-methyl-1H-pyrazol-3-ylamino)-2H-phthalazin-1-one]	1 to 100
Cc1cc(Nc2nn(C(C)C)c(=O)c3cc(C(=O)O)ccc23)n[nH]1 [Example M-1, 3-Isopropyl-1-(5-methyl-1H-pyrazol-3-ylamino)-4-oxo-3,4-dihydro-phthalazine-6-carboxylic acid]	1 to 100
Cc1cc(Nc2nn(-c3ccc(-c4ccccc4C)cc3)c(=O)c3ccccc23)n[nH]1 [Example Q-2, 2-(2′-Methyl-biphenyl-4-yl)-4-(5-methyl-1H-pyrazol-3-ylamino)-2H-phthalazin-1-one]	1 to 100
Cc1cc(Nc2nn(C(C)C)c(=O)c3ccc(N(C)C)cc23)n[nH]1 [Example F-7, 2-Isopropyl-4-(5-methyl-1H-pyrazol-3-ylamino)-6-dimethylamino-2H-phthalazin-1-one]	100 to 1000
CC(=O)Nc1ccc(Cn2nc(Nc3cc[nH]n3)c3ccccc3c2=O)cc1 [Example D-2, N-{4-[1-Oxo-4-(1H-pyrazol-3-ylamino)-1H-phthalazin-2-ylmethyl]-phenyl}-acetamide]	555

The remaining lines, values ahead:

IC50 [nM]	SMILES
1 to 100	Cc1cc(Nc2nn(C(C)C)c(=O)c3ccccc23)n[nH]1 [Example A-23, 2-Isopropyl-4-(5-methyl-1H-pyrazol-3-ylamino)-2H-phthalazin-1-one]
1 to 100	Cc1cc(Nc2nn(-c3ccc(NS(C)(=O)=O)cc3)c(=O)c3ccccc23)n[nH]1 [Example T-5, N-{4-[4-(5-Methyl-1H-pyrazol-3-ylamino)-1-oxo-1H-phthalazin-2-yl]-phenyl}-methanesulfonamide]
1 to 100	Cc1cc(Nc2nn(C(C)C)c(=O)c3cc(CN4CCN(C)CC4)ccc23)n[nH]1 [Example L-1, 2-Isopropyl-7-(4-methyl-piperazin-1-ylmethyl)-4-(5-methyl-1H-pyrazol-3-ylamino)-2H-phthalazin-1-one]
1 to 100	Cc1cc(Nc2nn(-c3cccc(C(C)(C)C)c3)c(=O)c3ccccc23)n[nH]1 [Example X-2, 2-(3-tert-Butyl-phenyl)-4-(5-methyl-1H-pyrazol-3-ylamino)-2H-phthalazin-1-one]
1 to 100	Cc1cc(Nc2nn(C(C)C)c(=O)c3cc(S(C)(=O)=O)ccc23)n[nH]1 [Example H-2, 2-Isopropyl-7-methanesulfonyl-4-(5-methyl-1H-pyrazol-3-ylamino)-2H-phthalazin-1-one]
1 to 100	CC(=O)N(C)c1ccc2c(Nc3cc(C)[nH]n3)nn(C(C)C)c(=O)c2c1 [Example I-5, N-[3-Isopropyl-1-(5-methyl-1H-pyrazol-3-ylamino)-4-oxo-3,4-dihydro-phthalazin-6-yl]-N-methyl-acetamide]
1 to 100	COc1ccc(C(=O)Cn2nc(Nc3cc(C)[nH]n3)c3ccccc3c2=O)cc1 [Example E-4, 2-[2-(4-Methoxy-phenyl)-2-oxo-ethyl]-4-(5-methyl-1H-pyrazol-3-ylamino)-2H-phthalazin-1-one]
1 to 100	CNc1ccc2c(Nc3cc(C)[nH]n3)nn(C(C)C)c(=O)c2c1 [Example I-12, 2-Isopropyl-7-methylamino-4-(5-methyl-1H-pyrazol-3-ylamino)-2H-phthalazin-1-one]
1 to 100	Cc1cc(Nc2nn(C(C)C)c(=O)c3cc(N(C)Cc4ccncc4)ccc23)n[nH]1 [Example I-2, 2-Isopropyl-4-(5-methyl-1H-pyrazol-3-ylamino)-7-(methyl-pyridin-4-ylmethyl-amino)-2H-phthalazin-1-one]
1 to 100	COc1ccc(-n2nc(Nc3cc(C)[nH]n3)c3ccccc3c2=O)cc1 [Example A-9, 2-(4-Methoxy-phenyl)-4-(5-methyl-1H-pyrazol-3-ylamino)-2H-phthalazin-1-one]
1 to 100	COc1ccc(Cn2nc(Nc3cc(C)[nH]n3)c3ccccc3c2=O)cc1 [Example A-11, 2-(4-Methoxy-benzyl)-4-(5-methyl-1H-pyrazol-3-ylamino)-2H-phthalazin-1-one]
1 to 100	Cc1cc(Nc2nn(C(C)C)c(=O)c3cc(NCCN4CCOCC4)ccc23)n[nH]1 [Example I-11, 2-Isopropyl-4-(5-methyl-1H-pyrazol-3-ylamino)-7-(2-morpholin-4-yl-ethylamino)-2H-phthalazin-1-one]
1 to 100	Cc1cc(Nc2nn(Cc3cccc(C(=O)O)c3)c(=O)c3ccccc23)n[nH]1 [Example A-24, 3-[4-(5-Methyl-1H-pyrazol-3-ylamino)-1-oxo-1H-phthalazin-2-ylmethyl]-benzoic acid]
